According to patent publication US10501479B2, “Benzenesulfonyl-asymmetric ureas and medical uses thereof” (HELSINN HEALTHCARE SA, priority 2016, dated 2019):
Like-named read-outs stand apart in the source and are kept apart here.

How the values were obtained:
[1] = biological target: T1, recombinant human ghrelin receptor (HEK293/GRLN) (Homo sapiens, UniProt Q92847); test: Ghrelin inverse agonist potency (EC50) with IP-1 (IP-One HTRF) assay; type: cell-based; settings: IP-1 assay
T1 construct: expressed in transfected cells
T1 sequence (Q92847 whole entry): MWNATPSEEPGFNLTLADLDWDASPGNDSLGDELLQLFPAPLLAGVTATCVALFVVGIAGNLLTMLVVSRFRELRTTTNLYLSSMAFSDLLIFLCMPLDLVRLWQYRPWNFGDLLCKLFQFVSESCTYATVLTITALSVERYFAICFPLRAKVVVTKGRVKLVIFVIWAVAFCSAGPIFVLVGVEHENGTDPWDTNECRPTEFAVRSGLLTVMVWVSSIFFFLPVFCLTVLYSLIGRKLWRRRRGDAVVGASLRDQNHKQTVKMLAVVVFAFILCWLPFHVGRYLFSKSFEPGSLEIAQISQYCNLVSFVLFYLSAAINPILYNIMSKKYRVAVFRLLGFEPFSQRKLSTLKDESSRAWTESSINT
In short: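 IP-1 accumulation was measured by HTRF (IP1-d2/Tb-cryptate, 620/665 nm read after 1 hour at room temperature) following 1 hour of compound treatment at 37° C. Cells were HEK293 stably expressing human ghrelin receptor, plated a day earlier on Matrigel. Inverse agonist potency was reported as EC50.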

[2] = biological target: T2, GHSR-1a (HEK293/GHSR1a cell line) (Homo sapiens, UniProt Q92847); test: Ghrelin agonist potency (EC50) with calcium FLIPR assay; type: cell-based
T2 construct: expressed in transfected cells; host or cells: HEK293/GHSR1a cell line
T2 sequence (Q92847 whole entry): as above
In short: (§1)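 Calcium flux was followed 2 min by FLIPR in dye-loaded HEK293/GHSR1a cells. For antagonist IC50, compound and ghrelin (10 nM) were co-added at t=20 sec and inhibition of the ghrelin signal fitted; for agonist EC50, compound alone was added at t=20 sec and dose-response fitted.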

[3] = biological target: T2, GHSR-1a (HEK293/GHSR1a cell line); test: Ghrelin antagonist potency (IC50) with calcium FLIPR assay, ghrelin 10 nM; type: cell-based
In short: as §1

[4] = Metabolic stability in human liver microsomes; type: in vitro ADME
In short: (§2)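 Parent compound was measured by LC-MS/MS at time zero and after 10, 30 and 90 min at 37 °C. Incubations used liver microsomes from four species (human, dog, rat, mouse) with an NADPH regenerating system in pH 7.4 potassium phosphate buffer. Each timepoint was stopped with cold quench solution.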

[5] = Metabolic stability in mouse liver microsomes; type: in vitro ADME
In short: as §2

[6] = HEK293/GRLN, read-out: Activity EC50 (ghrelin inverse agonist potency)
[7] = HEK293/GHSR1a, read-out: Activity EC50/EMax: EC50 (ghrelin agonist potency)
[8] = HEK293/GHSR1a, ghrelin 10 nM, read-out: Activity IC50 (ghrelin antagonist potency)
[9] = ghrelin inverse agonist potency, read-out: Activity EC50
[10] = ghrelin agonist potency, read-out: Activity EC50/EMax
[11] = ghrelin antagonist potency, read-out: Activity IC50

## CC(NC(=O)Nc1ccc(S(=O)(=O)Cc2ccc3c(c2)CN(C)C3)cc1)c1cccc2ccccc12 (stereo not drawn) [H1302, 1-(4-(((2-methylisoindolin-5-yl)methyl)sulfonyl)phenyl)-3-(1-(naphthalen-1-yl)ethyl)urea]
[1]; [6]
  EC50: 0.0047 µM
[2]; [7]
  EC50: > 30 µM
[3]; [8]
  IC50: 0.0057 µM
[4]
  Metabolic Stability Study H = human: 201.7 µL/min/mg
[5]
  Metabolic Stability Study M = mouse: 164.1 µL/min/mg

## COc1cc(S(=O)(=O)Cc2ccc3c(c2)CCN(C)C3)ccc1NC(=O)NC(C)c1cccc(Cl)c1Cl (stereo not drawn) [H1428, 1-(1-(2,3-dichlorophenyl)ethyl)-3-(2-methoxy-4-(((2-methyl-1,2,3,4-tetrahydroisoquinolin-6-yl)methyl)sulfonyl)phenyl)urea]
[1]; [6]
  EC50: 0.0005 µM
[2]; [7]
  EC50: > 30 µM
[3]; [8]
  IC50: 0.0033 µM
[4]
  Metabolic Stability Study H = human: 69.3 µL/min/mg
[5]
  Metabolic Stability Study M = mouse: 194.8 µL/min/mg

## COc1cc(S(=O)(=O)Cc2ccc3c(c2)CNC3)ccc1NC(=O)NC(C)c1c(F)cccc1F (stereo not drawn) [H1412, 1-(1-(2,6-difluorophenyl)ethyl)-3-(4-((isoindolin-5-ylmethyl)sulfonyl)-2-methoxyphenyl)urea]
[1]; [6]
  EC50: 0.0043 µM
[2]; [7]
  EC50: > 30 µM
[3]; [8]
  IC50: 0.0157 µM
[4]
  Metabolic Stability Study H = human: 22.5 µL/min/mg
[5]
  Metabolic Stability Study M = mouse: 122.4 µL/min/mg

## CC(NC(=O)Nc1ccc(S(=O)(=O)Cc2ccc3c(c2)CN(C)C3)cc1Cl)c1ccccc1 (stereo not drawn) [H1456, 1-(2-chloro-4-(((2-methylisoindolin-5-yl)methyl)sulfonyl)phenyl)-3-(1-phenylethyl)urea]
[1]; [9]
  EC50: 0.0062 µM
[2]; [10]
  EC50: > 30 µM
[3]; [11]
  IC50: 0.109 µM
[4]
  Metabolic Stability Study H = human: 160.6 µL/min/mg
[5]
  Metabolic Stability Study M = mouse: 137.8 µL/min/mg

## COc1cc(S(=O)(=O)Cc2ccc3c(c2)CNC3)ccc1NC(=O)NC(C)c1ccccc1OC (stereo not drawn) [H1393, 1-(4-((isoindolin-5-ylmethyl)sulfonyl)-2-methoxyphenyl)-3-(1-(2-methoxyphenyl)ethyl)urea]
[1]; [6]
  EC50: 0.00373 µM
[2]; [7]
  EC50: > 30 µM
[3]; [8]
  IC50: 0.0092 µM
[4]
  Metabolic Stability Study H = human: 55.5 µL/min/mg
[5]
  Metabolic Stability Study M = mouse: 55.1 µL/min/mg

## CC(NC(=O)Nc1ccc(S(=O)(=O)Cc2ccc3c(c2)CCN(C)C3)cc1)c1cccc(F)c1F (stereo not drawn) [H1345, 1-(1-(2,3-difluorophenyl)ethyl)-3-(4-(((2-methyl-1,2,3,4-tetrahydroisoquinolin-6-yl)methyl)sulfonyl)phenyl)urea]
[1]; [6]
  EC50: 0.0042 µM
[2]; [7]
  EC50: > 30 µM
[3]; [8]
  IC50: 0.0052 µM
[4]
  Metabolic Stability Study H = human: 86.5 µL/min/mg
[5]
  Metabolic Stability Study M = mouse: 166.2 µL/min/mg

## COc1cc(NC(=O)NC(C)c2ccccc2)ccc1S(=O)(=O)Cc1ccc2c(c1)CN(C)C2 (stereo not drawn) [H1462, 1-(3-methoxy-4-(((2-methylisoindolin-5-yl)methyl)sulfonyl)phenyl)-3-(1-phenylethyl)urea]
[1]; [9]
  EC50: 0.00624 µM
[2]; [10]
  EC50: > 30 µM
[3]; [11]
  IC50: 0.0138 µM
[4]
  Metabolic Stability Study H = human: 76.1 µL/min/mg
[5]
  Metabolic Stability Study M = mouse: 15.8 µL/min/mg

## CC(NC(=O)Nc1ccc(S(=O)(=O)Cc2ccc3c(c2)CN(C2COC2)C3)cc1)c1ccccc1 (stereo not drawn) [H1319, 1-(4-(((2-(oxetan-3-yl)isoindolin-5-yl)methyl)sulfonyl)phenyl)-3-(1-phenylethyl)urea]
[1]; [6]
  EC50: 0.0125 µM
[2]; [7]
  EC50: > 30 µM
[3]; [8]
  IC50: 0.041 µM
[4]
  Metabolic Stability Study H = human: 195.6 µL/min/mg
[5]
  Metabolic Stability Study M = mouse: > 500 µL/min/mg

## COc1cc(S(=O)(=O)Cc2ccc3c(c2)CNC3)ccc1NC(=O)N(C)C(C)c1ccccc1 (stereo not drawn) [H1398, 3-(4-((isoindolin-5-ylmethyl)sulfonyl)-2-methoxyphenyl)-1-methyl-1-(1-phenylethyl)urea]
[1]; [6]
  EC50: 0.0626 µM
[2]; [7]
  EC50: > 30 µM
[3]; [8]
  IC50: 0.629 µM
[4]
  Metabolic Stability Study H = human: 52.9 µL/min/mg
[5]
  Metabolic Stability Study M = mouse: 80.5 µL/min/mg

## CC(NC(=O)Nc1ccc(S(=O)(=O)Cc2ccc3c(c2)CNC3)cc1)c1cc(F)cc(F)c1 (stereo not drawn) [H1445, 1-(1-(3,5-difluorophenyl)ethyl)-3-(4-((isoindolin-5-ylmethyl)sulfonyl)phenyl)urea]
[1]; [6]
  EC50: 0.0039 µM
[2]; [7]
  EC50: > 30 µM
[3]; [8]
  IC50: 0.0238 µM
[4]
  Metabolic Stability Study H = human: 19.4 µL/min/mg
[5]
  Metabolic Stability Study M = mouse: 17.3 µL/min/mg

## CC(NC(=O)Nc1ccc(S(=O)(=O)Cc2ccc3c(c2)CNC3)cc1C1CC1)c1ccccc1 (stereo not drawn) [H1484, 1-(2-cyclopropyl-4-((isoindolin-5-ylmethyl)sulfonyl)phenyl)-3-(1-phenylethyl)urea]
[1]; [9]
  EC50: 0.0071 µM
[2]; [10]
  EC50: > 30 µM
[3]; [11]
  IC50: 0.0217 µM
[4]
  Metabolic Stability Study H = human: 116.7 µL/min/mg
[5]
  Metabolic Stability Study M = mouse: 149.3 µL/min/mg

## C[C@@H](NC(=O)Nc1ccc(S(=O)(=O)Nc2ccc3c(c2)CN(C)C3)cc1)c1ccccc1 [H1337, (R)-N-(2-methylisoindolin-5-yl)-4-(3-(1-phenylethyl)ureido) benzenesulfonamide]
[1]; [6]
  EC50: 0.0105 µM
[2]; [7]
  EC50: > 30 µM
[3]; [8]
  IC50: 0.0241 µM
[4]
  Metabolic Stability Study H = human: 58.6 µL/min/mg
[5]
  Metabolic Stability Study M = mouse: 39.2 µL/min/mg

## CC(NC(=O)Nc1ccc(S(=O)(=O)Cc2ccc3c(c2)CN(C)C3)cc1)c1cc(F)cc(F)c1 (stereo not drawn) [H1446, 1-(1-(3,5-difluorophenyl)ethyl)-3-(4-(((2-methylisoindolin-5-yl)methyl)sulfonyl)phenyl)urea]
[1]; [6]
  EC50: 0.009 µM
[2]; [7]
  EC50: > 30 µM
[3]; [8]
  IC50: 0.0965 µM
[4]
  Metabolic Stability Study H = human: 177.6 µL/min/mg
[5]
  Metabolic Stability Study M = mouse: 58.5 µL/min/mg

## CCc1ccc(Cl)c(C(C)NC(=O)Nc2ccc(S(=O)(=O)Cc3ccc4c(c3)CNC4)cc2)c1 (stereo not drawn) [H1281, 1-(1-(2-chloro-5-ethylphenyl)ethyl)-3-(4-((isoindolin-5-ylmethyl)sulfonyl)phenyl)urea]
[1]; [6]
  EC50: 0.0153 µM
[2]; [7]
  EC50: > 30 µM
[3]; [8]
  IC50: 0.039 µM
[4]
  Metabolic Stability Study H = human: 63.8 µL/min/mg
[5]
  Metabolic Stability Study M = mouse: 47.8 µL/min/mg

## CC(NC(=O)Nc1ccc(S(=O)(=O)Cc2ccc3c(c2)CC(C)N(C)C3)cc1)c1ccccc1 (stereo not drawn) [H1407, 1-(4-(((2,3-dimethyl-1,2,3,4-tetrahydroisoquinolin-6-yl)methyl)sulfonyl)phenyl)-3-(1-phenylethyl)urea]
[1]; [6]
  EC50: 0.00145 µM
[2]; [7]
  EC50: > 30 µM
[3]; [8]
  IC50: 0.0127 µM
[4]
  Metabolic Stability Study H = human: 144.4 µL/min/mg
[5]
  Metabolic Stability Study M = mouse: 84.1 µL/min/mg

## CC(NC(=O)Nc1ccc(S(=O)(=O)Cc2ccc(CN3CCCC3)cc2)cc1)c1ccccc1 (stereo not drawn) [H1276, 1-(1-phenylethyl)-3-(4-((4-(pyrrolidin-1-ylmethyl)benzyl)sulfonyl)phenyl)urea]
[1]; [6]
  EC50: 0.0234 µM
[2]; [7]
  EC50: > 30 µM
[3]; [8]
  IC50: 0.076 µM
[4]
  Metabolic Stability Study H = human: 109.7 µL/min/mg
[5]
  Metabolic Stability Study M = mouse: 247 µL/min/mg

## CC(NC(=O)Nc1ccc(S(=O)(=O)Cc2cc3c(s2)CN(C)C3)cc1)c1ccccc1 (stereo not drawn) [H1321, 1-(4-(((5-methyl-5,6-dihydro-4H-thieno[2,3-c]pyrrol-2-yl)methyl)sulfonyl)phenyl)-3-(1-phenylethyl)urea]
[1]; [6]
  EC50: 0.0232 µM
[2]; [7]
  EC50: > 30 µM
[3]; [8]
  IC50: 0.0475 µM
[4]
  Metabolic Stability Study H = human: 85.3 µL/min/mg
[5]
  Metabolic Stability Study M = mouse: 81.9 µL/min/mg

## CC(NC(=O)Nc1ccc(S(=O)(=O)Cc2cc3c(s2)CCN(C)C3)cc1)c1cccc(Cl)c1Cl (stereo not drawn) [H1359, 1-(1-(2,3-dichlorophenyl)ethyl)-3-(4-(((5-methyl-4,5,6,7-tetrahydrothieno[3,2-c]pyridin-2-yl)methyl)sulfonyl)phenyl)urea]
[1]; [6]
  EC50: 0.004 µM
[2]; [7]
  EC50: > 30 µM
[3]; [8]
  IC50: 0.0015 µM
[4]
  Metabolic Stability Study H = human: H = 108.6 M = 108.6 R = not reported D = not reported μL/min/mg
[5]
  Metabolic Stability Study M = mouse: H = 108.6 M = 108.6 R = not reported D = not reported μL/min/mg
